# Test results from patent publication US20090012091A1, “Oximide derivatives and their therapeutical application” (KinaGen, Inc., priority 2007, published 2009).
# Target: T1, B-raf kinase (Homo sapiens, UniProt P15056)
# T1 construct: made in house; host or cells: Sf9 insect cells (baculovirus)
# Test: in vitro Raf Kinase Assay (33P-phosphate incorporation into GST-kdMEK)
# Format: biochemical
# Details: human recombinant Raf protein, substrate GST-kdMEK, 33P-ATP, 25° C., 90 minutes; read-out: IC50 (concentration of test compound required to inhibit 50% of the B-raf kinase activity)
# Procedure: Activity of human recombinant Raf protein was assessed in vitro by assay of the incorporation of radiolabelled phosphate to recombinant MAP kinase (MEK), a known physiologic substrate of Raf. Catalytically active human recombinant Raf protein was obtained by purification from sf9 insect cells infected with a human Raf recombinant baculovirus expression vector.
# Method: Standard assay conditions of Raf catalytic activity utilized […] of GST-kdMBK, 10 µM ATP and 2 uCi ^33P-ATP, 50 mM MOPS, 0.1 mM EDTA, 0.1M sucrose, 10 mM MgCl2 plus 0.1% dimethylsulphoxide (containing compound where appropriate) in a total reaction volume of 30 ul. Reactions were incubated at 25° C. for 90 minutes and reactions terminated by addition of EDTA to a final concentration of […]. 10 ul of reaction was spotted to P30 phosphocellulose paper and air dried. Following four washes in ice cold 10% trichloroacetic acid, 0.5% phosphoric acid, papers were air dried prior to addition of liquid scintillant and measurement of radioactivity in a scintillation counter. The % inhibition of the B-raf kinase activity is calculated and plotted in order to determine the concentration of test compound required to inhibit 50% of the B-raf kinase activity (IC50).
# T1 sequence (P15056 whole entry): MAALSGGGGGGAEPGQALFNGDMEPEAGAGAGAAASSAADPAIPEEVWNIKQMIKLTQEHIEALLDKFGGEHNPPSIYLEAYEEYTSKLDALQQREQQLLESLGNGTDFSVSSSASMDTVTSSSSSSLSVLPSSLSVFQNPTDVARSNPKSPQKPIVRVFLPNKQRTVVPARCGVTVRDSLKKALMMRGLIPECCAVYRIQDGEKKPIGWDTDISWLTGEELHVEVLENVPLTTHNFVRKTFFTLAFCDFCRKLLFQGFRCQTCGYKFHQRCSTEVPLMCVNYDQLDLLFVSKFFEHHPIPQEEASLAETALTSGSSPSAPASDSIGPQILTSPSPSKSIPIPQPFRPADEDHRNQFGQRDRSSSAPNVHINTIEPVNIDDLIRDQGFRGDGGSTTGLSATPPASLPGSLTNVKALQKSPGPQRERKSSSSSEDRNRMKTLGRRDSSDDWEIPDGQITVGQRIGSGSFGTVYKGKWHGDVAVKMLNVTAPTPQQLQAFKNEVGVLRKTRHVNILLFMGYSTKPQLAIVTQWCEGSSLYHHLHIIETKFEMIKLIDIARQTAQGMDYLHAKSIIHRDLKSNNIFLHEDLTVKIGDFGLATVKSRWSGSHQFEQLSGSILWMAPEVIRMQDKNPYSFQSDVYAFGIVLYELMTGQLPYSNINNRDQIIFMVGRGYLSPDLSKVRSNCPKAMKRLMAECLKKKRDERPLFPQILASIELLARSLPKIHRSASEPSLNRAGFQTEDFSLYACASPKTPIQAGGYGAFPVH
row,SMILES,IC50 [nM]
1,"CC(C)(C)OC(=O)c1cc(Oc2ccc(NC(=O)Nc3ccc(Cl)c(C(F)(F)F)c3)cc2)ccn1 [Compound 3, tert-butyl 4-(4-(3-(4-chloro-3-(trifluoromethyl)phenyl)ureido)phenoxy)picolinate]",< 10000
2,"O=C(Nc1ccc(Oc2ccnc(C(=O)O)c2)cc1)Nc1ccc(Cl)c(C(F)(F)F)c1 [Compound 4, 4-(4-(3-(4-chloro-3-(trifluoromethyl)phenyl)ureido)phenoxy)picolinic acid]",< 10000
3,"CONC(=O)c1cc(Oc2ccc(NC(=O)Nc3ccc(Cl)c(C(F)(F)F)c3)cc2)ccn1 [Compound 5, 4-(4-(3-(4-chloro-3-(trifluoromethyl)phenyl)ureido)phenoxy)-N-methoxypicolinamide]",< 1000
4,"CCCONC(=O)c1cc(Oc2ccc(NC(=O)Nc3ccc(Cl)c(C(F)(F)F)c3)cc2)ccn1 [Compound 6, 4-(4-(3-(4-chloro-3-(trifluoromethyl)phenyl)urei-do)phenoxy)-N-propoxypicolinamide]",< 1000
5,"CCONC(=O)c1cc(Oc2ccc(NC(=O)Nc3ccc(Cl)c(C(F)(F)F)c3)cc2)ccn1 [Compound 7, 4-(4-(3-(4-chloro-3-(trifluoromethyl)phenyl)urei-do)phenoxy)-N-ethoxypicolinamide]",< 1000
6,"CCN(CC)CCONC(=O)c1cc(Oc2ccc(NC(=O)Nc3ccc(Cl)c(C(F)(F)F)c3)cc2)ccn1 [Compound 8, 4-(4-(3-(4-chloro-3-(trifluoromethyl)phenyl)urei-do)phenoxy)-N-(2-(diethylamino)ethoxy)picolinamide]",< 1000
7,"CN(C)CCONC(=O)c1cc(Oc2ccc(NC(=O)Nc3ccc(Cl)c(C(F)(F)F)c3)cc2)ccn1 [Compound 9, 4-(4-(3-(4-chloro-3-(trifluoromethyl)phenyl)urei-do)phenoxy)-N-(2-(dimethylamino)ethoxy)picolinamide]",< 1000
8,"CCN(CC)C(=O)CONC(=O)c1cc(Oc2ccc(NC(=O)Nc3ccc(Cl)c(C(F)(F)F)c3)cc2)ccn1 [Compound 10, 4-(4-(3-(4-chloro-3-(trifluoromethyl)phenyl)urei-do)phenoxy)-N-(2-(diethylamino)-2-oxoethoxy)picolinamide]",< 1000
9,"CN(C)C(=O)CONC(=O)c1cc(Oc2ccc(NC(=O)Nc3ccc(Cl)c(C(F)(F)F)c3)cc2)ccn1 [Compound 11, 4-(4-(3-(4-chloro-3-(trifluoromethyl)phenyl)urei-do)phenoxy)-N-(2-(dimethylamino)-2-oxoethoxy)picolinamide]",< 1000
10,"CONC(=O)c1cc(Oc2ccc(NC(=O)Nc3ccc(Cl)cc3)cc2)ccn1 [Compound 12, 4-(4-(3-(4-chlorophenyl)ureido)phenoxy)-N-methoxypicolinamide]",< 1000
11,"CONC(=O)c1cc(Oc2ccc(NC(=O)Nc3cccc(C(F)(F)F)c3)cc2)ccn1 [Compound 13, N-methoxy-4-(4-(3-(3-(trifluoromethyl)phenyl)urei-do)phenoxy)picolinamide]",< 1000
12,"CONC(=O)c1cc(Oc2ccc(NC(=O)Nc3ccc(Cl)c(Cl)c3)cc2)ccn1 [Compound 14, 4-(4-(3-(3,4-dichlorophenyl)ureido)phenoxy)-N-methoxypicolinamide]",< 1000
13,"CONC(=O)c1cc(Oc2ccc(NC(=O)Nc3ccccc3)cc2)ccn1 [Compound 15, N-methoxy-4-(4-(3-phenylureido)phenoxy)picolinamide]",< 1000
14,"CONC(=O)c1cc(Oc2ccc(NC(=O)Nc3ccc(OC)c(OC)c3)cc2)ccn1 [Compound 16, 4-(4-(3-(3,4-dimethoxyphenyl)ureido)phenoxy)-N-methoxypicolinamide]",< 1000
15,"O=C(Nc1ccc(Oc2ccnc(C(=O)NOC3CCCC3)c2)cc1)Nc1ccc(Cl)c(Cl)c1 [Compound 17, N-(cyclopentyloxy)-4-(4-(3-(3,4-dichloro-phenyl)ureido)phenoxy)picolinamide]",< 1000
16,"O=C(Nc1ccccc1)Nc1ccc(Oc2ccnc(C(=O)NOC3CCCCC3)c2)cc1 [Compound 18, N-(cyclohexyloxy)-4-(4-(3-phenylureido)phenoxy)picolinamide]",< 1000
17,"COc1ccc(NC(=O)Nc2ccc(Oc3ccnc(C(=O)NOC4CCC4)c3)cc2)cc1OC [Compound 19, N-cyclobutoxy-4-(4-(3-(3,4-dimethoxyphenyl)urei-do)phenoxy)picolinamide]",< 1000
18,"CCNC(=O)c1cc(Oc2ccc(NC(=O)c3ccc(Cl)cc3)cc2)ccn1 [Compound 20, 4-(4-(4-chloro-benzamido)phenoxy)-N-ethylpicolinamide]",< 10000

# Continued, values first:
row,IC50 [nM],SMILES
1,< 10000,"CCNC(=O)c1cc(Oc2ccc(NC(=O)c3ccc(Cl)c(Cl)c3)cc2)ccn1 [Compound 21, 4-(4-(3,4-dichlorobenzamido)phenoxy)-N-ethylpicolinamide]"
2,< 1000,"O=C(Nc1ccc(Oc2cc(C(=O)NCCO)ncn2)cc1)Nc1ccc(Cl)c(C(F)(F)F)c1 [Compound 22, 6-(4-(3-(4-chloro-3-(trifluoro-methyl)phenyl)ureido)phenoxy)-N-(2-hydroxyethyl)pyrimidine-4-carboxamide]"
3,< 1000,"CNC(=O)c1cc(Oc2ccc(NC(=O)Nc3ccc(Cl)c(C(F)(F)F)c3)cc2)ncn1 [Compound 23, 6-(4-(3-(4-chloro-3-(trifluoro-methyl)phenyl)ureido)phenoxy)-N-methylpyrimidine-4-carboxamide]"
4,< 1000,"CNC(=O)c1cc(Oc2ccc(NC(=O)Nc3ccc(Cl)cc3)cc2)ncn1 [Compound 24, 6-(4-(3-(4-chlorophenyl)ureido)phenoxy)-N-methylpyrimidine-4-carboxamide]"
5,< 1000,"CCONC(=O)c1cc(Oc2ccc(NC(=O)Nc3ccc(Cl)c(C(F)(F)F)c3)cc2)ncn1 [Compound 25, 6-(4-(3-(4-chloro-3-(trifluoro-methyl)phenyl)ureido)phenoxy)-N-ethoxypyrimidine-4-carboxamide]"
6,< 1000,"CONC(=O)c1cc(Oc2ccc(NC(=O)Nc3ccc(Cl)c(C(F)(F)F)c3)cc2)ncn1 [Compound 26, 6-(4-(3-(4-chloro-3-(trifluoro-methyl)phenyl)ureido)phenoxy)-N-methoxypyrimidine-4-carboxamide]"
7,< 1000,"CN(C)CCNC(=O)c1cc(Oc2ccc(NC(=O)Nc3ccc(Cl)c(C(F)(F)F)c3)cc2)ncn1 [Compound 27, 6-(4-(3-(4-chloro-3-(trifluoro-methyl)phenyl)ureido)phenoxy)-N-(2-(dimethylamino)ethyl)pyrimidine-4-carboxamide]"
8,< 1000,"CNC(=O)c1ncnc(Oc2ccc(NC(=O)Nc3ccc(Cl)c(C(F)(F)F)c3)cc2)n1 [Compound 28, 4-(4-(3-(4-chloro-3-(trifluoro-methyl)phenyl)ureido)phenoxy)-N-methyl-1,3,5-triazine-2-carboxamide]"
